# In patent US20140107021A1 (priority 2010, published 2014):
# Square brackets hold non-standard residues; d marks the D form. Ends that are not written are not given here. Peptide text beside a SMILES is read from it. * marks the point of attachment. Carboxymethyl = O=C(O)C*
# How the values were obtained:
# [1] = target: T1, glucagon receptor (Homo sapiens, UniProt P47871); assay: cell-based; settings: for cAMP pA2: Table I
# Description: HEK293 cells co-transfected with the receptor and luciferase gene linked to a cAMP responsive element were employed for the bioassay.
# All EC50s and IC50s are reported in the following examples in nM, unless indicated otherwise.
# [2] = solubility at pH 6-8; type: physicochemical
# [3] = target: T1, glucagon receptor; assay: glucagon receptor binding; parameters: expressed in transfected cells; host or cells: HEK293
# [4] = IC50(nM) (cAMP, inhibit Glucagon) 0.1 nM, Table J, inhibit 0.1 nM glucagon
# [5] = Table J, read-out: IC50(nM) (Receptor binding)
# [6] = Table L, read-out: IC50(nM) (Receptor binding)
# [7] = read-out: IC50(nM) (cΛMP, inhibit 0.2 mM Glucagon), Table L, inhibit 0.2 mM Glucagon
# T1 sequence (P47871 26-477): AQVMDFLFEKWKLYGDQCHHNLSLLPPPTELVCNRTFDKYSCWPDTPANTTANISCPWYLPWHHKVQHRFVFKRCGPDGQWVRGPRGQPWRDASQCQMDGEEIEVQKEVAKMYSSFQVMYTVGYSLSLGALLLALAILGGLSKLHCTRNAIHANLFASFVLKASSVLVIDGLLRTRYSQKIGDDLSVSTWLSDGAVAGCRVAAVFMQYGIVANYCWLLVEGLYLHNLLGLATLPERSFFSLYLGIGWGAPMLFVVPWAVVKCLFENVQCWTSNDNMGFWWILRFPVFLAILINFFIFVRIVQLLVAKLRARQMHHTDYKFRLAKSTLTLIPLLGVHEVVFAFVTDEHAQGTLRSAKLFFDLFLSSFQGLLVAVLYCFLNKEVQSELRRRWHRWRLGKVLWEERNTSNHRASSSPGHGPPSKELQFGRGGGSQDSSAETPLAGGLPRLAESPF
Molecule,"IC50 [1, 4] [nM]","Solubility (%, pH 6-8) [2] [%]","IC50 [3, 5] [nM]","IC50 [3, 6] [nM]",other results
"CSCC[C@H](NC(=O)[C@H](CC(C)C)NC(=O)[C@H](Cc1c[nH]c2ccccc12)NC(=O)[C@H](CCC(N)=O)NC(=O)[C@@H](NC(=O)[C@H](Cc1ccccc1)NC(=O)[C@H](CC(=O)O)NC(=O)[C@H](CCC(N)=O)NC(=O)[C@H](C)NC(=O)[C@H](CCCNC(=N)N)NC(=O)[C@H](CCCNC(=N)N)NC(=O)[C@H](CO)NC(=O)[C@H](CC(=O)O)NC(=O)[C@H](CC(C)C)NC(=O)[C@H](Cc1ccc(O)cc1)NC(=O)[C@H](CCCCN)NC(=O)[C@H](CO)NC(=O)[C@H](Cc1ccc(O)cc1)NC(=O)[C@H](CCC(=O)O)NC(=O)[C@H](CO)NC(=O)[C@@H](NC(=O)[C@@H](O)Cc1ccccc1)[C@@H](C)O)C(C)C)C(=O)N[C@@H](CC(N)=O)C(=O)N[C@H](C(N)=O)[C@@H](C)O [[PLA6, E9]Glucagon(aa6-29)-NH2] (HELM PEPTIDE1{[O=C([C@@H](O)Cc1ccccc1)[*:2]].T.S.E.Y.S.K.Y.L.D.S.R.R.A.Q.D.F.V.Q.W.L.M.N.T.[am]}$$$$V2.0)",2.39,11,12.3 ± 2.24,,"IC50 ([1]; IC50(nM) (cAMP, inhibit Glucagon) 0.2 nM, Table J, inhibit 0.2 nM glucagon): 42.4 nM; IC50 ([3]; Table K, read-out: IC50(nM) (Receptor binding)): 12.3 ± 0.13 nM"
"CSCC[C@H](NC(=O)[C@H](CC(C)C)NC(=O)[C@H](Cc1c[nH]c2ccccc12)NC(=O)[C@H](CCC(N)=O)NC(=O)[C@@H](NC(=O)[C@H](Cc1ccccc1)NC(=O)[C@H](CC(=O)O)NC(=O)[C@H](CCC(N)=O)NC(=O)[C@H](C)NC(=O)[C@H](CCCNC(=N)N)NC(=O)[C@H](CCCNC(=N)N)NC(=O)[C@H](CO)NC(=O)[C@H](CC(=O)O)NC(=O)[C@H](CC(C)C)NC(=O)[C@H](Cc1ccc(O)cc1)NC(=O)[C@H](CCCCN)NC(=O)[C@H](CO)NC(=O)[C@H](Cc1ccc(O)cc1)NC(=O)[C@H](CC(=O)O)NC(=O)[C@H](CO)NC(=O)[C@@H](NC(=O)[C@@H](O)Cc1ccccc1)[C@@H](C)O)C(C)C)C(=O)N[C@@H](CC(N)=O)C(=O)N[C@H](C(N)=O)[C@@H](C)O [[PLA6, D9]Glucagon(aa6-29)-NH2] (HELM PEPTIDE1{[O=C([C@@H](O)Cc1ccccc1)[*:2]].T.S.D.Y.S.K.Y.L.D.S.R.R.A.Q.D.F.V.Q.W.L.M.N.T.[am]}$$$$V2.0)",,11,13.9 ± 3.22,,
"[C8(20 kDaPEG), E9]Glucagon(aa6-29)-NH2 (FTC(PEG 20 kDa)EYSKYLDSRRAQDFVQWLMNT-NH2)",,,,> 1000,"IC50(nM) (cΛMP, inhibit 0.2 mM Glucagon) ([1]; Table L, inhibit 0.2 mM Glucagon): no antagonism"
"CSCC[C@H](NC(=O)[C@H](CC(C)C)NC(=O)[C@H](Cc1c[nH]c2ccccc12)NC(=O)[C@H](CCC(N)=O)NC(=O)[C@@H](NC(=O)[C@H](Cc1ccccc1)NC(=O)[C@H](CC(=O)O)NC(=O)[C@H](CCC(N)=O)NC(=O)[C@H](C)NC(=O)[C@H](CCCNC(=N)N)NC(=O)[C@H](CCCNC(=N)N)NC(=O)[C@H](CO)NC(=O)[C@H](CC(=O)O)NC(=O)[C@H](CC(C)C)NC(=O)[C@H](Cc1ccc(O)cc1)NC(=O)[C@H](CCCCN)NC(=O)[C@H](CO)NC(=O)[C@H](Cc1ccc(O)cc1)NC(=O)[C@H](CCC(=O)O)NC(=O)[C@H](CO)NC(=O)[C@@H](NC(=O)[C@@H](O)Cc1ccccc1)[C@@H](C)O)C(C)C)C(=O)N[C@@H](CC(N)=O)C(=O)N[C@H](C(=O)NCC(=O)N1CCC[C@H]1C(=O)N[C@@H](CO)C(=O)N[C@@H](CO)C(=O)NCC(=O)N[C@@H](C)C(=O)N1CCC[C@H]1C(=O)N1CCC[C@H]1C(=O)N1CCC[C@H]1C(=O)N[C@@H](CO)C(N)=O)[C@@H](C)O [[PLA6, E9]Glucagon (aa6-29 + CEX)-NH2] (HELM PEPTIDE1{[O=C([C@@H](O)Cc1ccccc1)[*:2]].T.S.E.Y.S.K.Y.L.D.S.R.R.A.Q.D.F.V.Q.W.L.M.N.T.G.P.S.S.G.A.P.P.P.S.[am]}$$$$V2.0)",24.8,16,40.3 ± 11.3,,
"CSCC[C@H](NC(=O)[C@H](CC(C)C)NC(=O)[C@H](Cc1c[nH]c2ccccc12)NC(=O)[C@H](CCC(N)=O)NC(=O)[C@@H](NC(=O)[C@H](Cc1ccccc1)NC(=O)[C@H](CC(=O)O)NC(=O)[C@H](CCC(N)=O)NC(=O)[C@H](C)NC(=O)[C@H](CCCNC(=N)N)NC(=O)[C@H](CCCNC(=N)N)NC(=O)[C@H](CO)NC(=O)[C@H](CC(=O)O)NC(=O)[C@H](CC(C)C)NC(=O)[C@H](Cc1ccc(O)cc1)NC(=O)[C@H](CCCCN)NC(=O)[C@H](CO)NC(=O)[C@H](Cc1ccc(O)cc1)NC(=O)[C@H](CSCC(=O)O)NC(=O)[C@H](CO)NC(=O)[C@@H](NC(=O)[C@@H](N)Cc1ccccc1)[C@@H](C)O)C(C)C)C(=O)N[C@@H](CC(N)=O)C(=O)N[C@H](C(N)=O)[C@@H](C)O [[(CSA-1)^9]Glucagon(aa6-29)-NII2, [C^9(SCH2COOH)]Glucagon(aa6-29)-NH2] (H-FTSC(Carboxymethyl)YSKYLDSRRAQDFVQWLMNT-NH2; N-terminus assumed)",,,,,"Kb [1]: 209 nM; cAMP pA2 [1]: 6.68 ± 1.05; IC50 ([3]; Table G, average ±STD of at least three experiments, same values as receptor binding in Table I, read-out: IC50): 107 ± 5.37 nM"
"CSCC[C@H](NC(=O)[C@H](CC(C)C)NC(=O)[C@H](Cc1c[nH]c2ccccc12)NC(=O)[C@H](CCC(N)=O)NC(=O)[C@@H](NC(=O)[C@H](Cc1ccccc1)NC(=O)[C@H](CC(=O)O)NC(=O)[C@H](CCC(N)=O)NC(=O)[C@H](C)NC(=O)[C@H](CCCNC(=N)N)NC(=O)[C@H](CCCNC(=N)N)NC(=O)[C@H](CO)NC(=O)[C@H](CC(=O)O)NC(=O)[C@H](CC(C)C)NC(=O)[C@H](Cc1ccc(O)cc1)NC(=O)[C@H](CCCCN)NC(=O)[C@H](CO)NC(=O)[C@H](Cc1ccc(O)cc1)NC(=O)[C@H](CC(=O)O)NC(=O)[C@H](CO)NC(=O)[C@@H](NC(=O)[C@@H](O)Cc1ccccc1)[C@@H](C)O)C(C)C)C(=O)N[C@@H](CC(=O)O)C(=O)N[C@H](C(N)=O)[C@@H](C)O [[PLA6, D9, D28]Glucagon(aa6-29)-NH2]",,100,,,
CSCC[C@H](NC(=O)[C@H](CC(C)C)NC(=O)[C@H](Cc1c[nH]c2ccccc12)NC(=O)[C@H](CCC(N)=O)NC(=O)[C@@H](NC(=O)[C@H](Cc1ccccc1)NC(=O)[C@H](CC(=O)O)NC(=O)[C@H](CCC(N)=O)NC(=O)[C@H](C)NC(=O)[C@H](CCCNC(=N)N)NC(=O)[C@H](CCCNC(=N)N)NC(=O)[C@H](CO)NC(=O)[C@H](CC(=O)O)NC(=O)[C@H](CC(C)C)NC(=O)[C@H](Cc1ccc(O)cc1)NC(=O)[C@H](CCCCN)NC(=O)[C@H](CO)NC(=O)[C@H](Cc1ccc(O)cc1)NC(=O)[C@H](CCS(=O)(=O)O)NC(=O)[C@H](CO)NC(=O)[C@@H](NC(=O)[C@@H](N)Cc1ccccc1)[C@@H](C)O)C(C)C)C(=O)N[C@@H](CC(N)=O)C(=O)N[C@H](C(N)=O)[C@@H](C)O [[hCys^9(SO3H)]Glucagon(aa6-29)-NH2] (HELM PEPTIDE1{F.T.S.[O=C([C@H](CCS(=O)(=O)O)N[*:1])[*:2]].Y.S.K.Y.L.D.S.R.R.A.Q.D.F.V.Q.W.L.M.N.T.[am]}$$$$V2.0),,,,,"Kb [1]: 69.2 nM; cAMP pA2 [1]: 7.16 ± 0.51; IC50 ([1]; cAMP IC50(nM), Table H): 133 nM; IC50 ([3]; Table H, same values as receptor binding in Table I, read-out: IC50): 59.1 ± 18.1 nM"
"[d-Cys5(20 kDaPEG, E9]Glucagon(aa5-29)-NH2 ([dC](PEG 20 kDa)FTSEYSKYLDSRRAQDFVQWLMNT-NH2)",,,,> 10000,"IC50 [1, 7]: 14800 nM"
"CSCC[C@H](NC(=O)[C@H](CC(C)C)NC(=O)[C@H](Cc1c[nH]c2ccccc12)NC(=O)[C@H](CCC(N)=O)NC(=O)[C@@H](NC(=O)[C@H](Cc1ccccc1)NC(=O)[C@H](CC(=O)O)NC(=O)[C@H](CCC(N)=O)NC(=O)[C@H](C)NC(=O)[C@H](CCCNC(=N)N)NC(=O)[C@H](CCCNC(=N)N)NC(=O)[C@H](CO)NC(=O)[C@H](CC(=O)O)NC(=O)[C@H](CC(C)C)NC(=O)[C@H](Cc1ccc(O)cc1)NC(=O)[C@H](CCCCN)NC(=O)[C@H](CO)NC(=O)[C@H](Cc1ccc(O)cc1)NC(=O)[C@H](CC(=O)O)NC(=O)[C@H](CO)NC(=O)[C@@H](NC(=O)[C@@H](O)Cc1ccccc1)[C@@H](C)O)C(C)C)C(=O)N[C@@H](CC(N)=O)C(=O)N[C@H](C(=O)O)[C@@H](C)O [[PLA6, D9]Glucagon(aa6-29)-COOH] (HELM PEPTIDE1{[O=C([C@@H](O)Cc1ccccc1)[*:2]].T.S.D.Y.S.K.Y.L.D.S.R.R.A.Q.D.F.V.Q.W.L.M.N.T}$$$$V2.0)",13.2,96,,,
"[C5(1.2 kDaPEG), E9]Glucagon(aa5-29)-NII2",,,,1080 ± 268,"IC50 [1, 7]: 2280 nM"
